The source of these data is ChEMBL document CHEMBL5038592, “Discovery of MK-8153, a Potent and Selective ROMK Inhibitor and Novel Diuretic/Natriuretic” (J Med Chem, 2021).

The IC50 is the midpoint of a concentration-inhibition curve. Broadly, the Cmax is the highest concentration seen after dosing. The term bioavailability denotes the share of a dose that reaches the circulation, judged against a reference dose that is usually intravenous.

Series [1] concerns the target T1, Inward rectifier potassium channel 13 (Homo sapiens, UniProt O60928).
T1 sequence (O60928 whole entry): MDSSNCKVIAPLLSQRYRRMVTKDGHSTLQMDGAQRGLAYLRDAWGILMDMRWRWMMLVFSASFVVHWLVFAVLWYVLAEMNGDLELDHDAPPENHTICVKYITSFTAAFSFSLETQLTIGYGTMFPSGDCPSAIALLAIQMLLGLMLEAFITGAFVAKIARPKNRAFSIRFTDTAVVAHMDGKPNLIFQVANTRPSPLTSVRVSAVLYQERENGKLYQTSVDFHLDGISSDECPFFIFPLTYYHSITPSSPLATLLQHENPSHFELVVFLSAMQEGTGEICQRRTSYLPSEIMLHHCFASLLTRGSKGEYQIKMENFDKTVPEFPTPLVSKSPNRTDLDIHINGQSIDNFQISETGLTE
Kind of series: Inhibition of Kir7.1 (unknown origin).

The target in series [2] is Sodium channel protein type 5 subunit alpha (Homo sapiens, UniProt Q14524). Kind of series: Inhibition of Nav1.5 (unknown origin).
Series [3] can be described thus: Volume of distribution at steady state in Beagle dog at 2 mg/kg, po or 1 mg/kg, iv. Type of series: ADME, organism-based, Canis lupus familiaris. As to conditions: in vivo, read-out: Vdss.
The target in series [4] is Voltage-dependent L-type calcium channel subunit alpha-1C (Homo sapiens, UniProt Q13936). Kind of series: Inhibition of Cav1.2 (unknown origin).
Series [5] in a line: Terminal half life in Wistar Han rat at 2 mg/kg, po or 1 mg/kg, iv. The class given is ADME, organism-based. As to conditions: in vivo, read-out: beta t1/2 (converted).
Series [6] in a line: Drug excretion in bile-duct cannulated rat assessed as urinary excretion. The class given is ADME. As to conditions: urine, read-out: Drug excretion.
Series [7] has as its system Rattus norvegicus. Kind of series: Diuretic activity in orally dosed spontaneous hypertensive rat assessed as increase in sodium excretion treated for 3 days measured after 0 to 24 hrs of dosing. The class given is functional, organism-based. The note with it: time 3.0 day.
Series [8] in a line: Cmax in Wistar Han rat at 2 mg/kg, po or 1 mg/kg, iv. Type of series: ADME, organism-based. As to conditions: in vivo. Also noted: dose 2 mg/kg.
Series [9] is described as follows: Clearance in Wistar Han rat at 2 mg/kg, po or 1 mg/kg, iv. Type of series: ADME, organism-based. As to conditions: in vivo.
Series [10] can be described thus: Clearance in rhesus monkey at 2 mg/kg, po or 1 mg/kg, iv. Type of series: ADME, organism-based, Macaca mulatta. As to conditions: in vivo.
For series [11], the system named is Rattus norvegicus. Kind of series: Diuretic activity in orally dosed spontaneous hypertensive rat assessed as urine volume treated for 3 days measured after 0 to 4 hrs of dosing. Type of series: functional, organism-based. The note with it: time 3.0 day.
Series [12] is described as follows: Inhibition of Kir2.1 (unknown origin). Also noted: species or system Homo sapiens.
A short description of series [13]: Volume of distribution at steady state in rhesus monkey at 2 mg/kg, po or 1 mg/kg, iv. Type of series: ADME, organism-based, Macaca mulatta. As to conditions: in vivo, read-out: Vdss.
Series [14] in a line: Metabolic stability in Beagle dog hepatocytes by LC/MS analysis. The class given is ADME, cell-based, Canis lupus familiaris, Hepatocyte.
The next series has as its target Cytochrome P450 2D6 (Homo sapiens, UniProt P10635). Kind of series: Inhibition of CYP2D6 (unknown origin).
A short description of series [15]: Oral bioavailability in Beagle dog at 2 mg/kg. As to conditions: in vivo. Type of series: ADME, organism-based, Canis lupus familiaris.
The nature of series [16]: Metabolic stability in Beagle dog liver microsomes by LC/MS analysis. Type of series: ADME, Canis lupus familiaris, Microsome.
For another series, the target named is T2, Cytochrome P450 2C8 (Homo sapiens, UniProt P10632).
T2 sequence (P10632 whole entry): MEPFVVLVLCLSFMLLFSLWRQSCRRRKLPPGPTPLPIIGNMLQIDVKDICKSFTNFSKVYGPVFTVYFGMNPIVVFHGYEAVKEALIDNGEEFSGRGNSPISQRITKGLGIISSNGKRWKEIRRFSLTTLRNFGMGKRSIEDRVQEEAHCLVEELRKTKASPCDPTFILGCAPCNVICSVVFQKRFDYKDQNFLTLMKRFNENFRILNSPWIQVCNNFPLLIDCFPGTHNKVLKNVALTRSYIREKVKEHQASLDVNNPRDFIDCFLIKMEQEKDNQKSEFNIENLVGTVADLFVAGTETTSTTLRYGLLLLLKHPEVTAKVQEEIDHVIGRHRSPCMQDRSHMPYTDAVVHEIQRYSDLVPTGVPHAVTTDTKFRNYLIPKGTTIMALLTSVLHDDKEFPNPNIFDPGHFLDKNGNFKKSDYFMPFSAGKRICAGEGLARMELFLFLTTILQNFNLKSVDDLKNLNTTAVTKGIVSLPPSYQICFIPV
Kind of series: Inhibition of CYP2C8 (unknown origin).

The nature of series [17]: Effective half life in rhesus monkey at 2 mg/kg, po or 1 mg/kg, iv. As to conditions: in vivo, read-out: t1/2eff (converted). Type of series: ADME, organism-based, Macaca mulatta.
Series [18] has as its system Rattus norvegicus. Kind of series: Diuretic activity in orally dosed spontaneous hypertensive rat assessed as urine volume treated for 3 days measured after 0 to 24 hrs of dosing. The class given is functional, organism-based. The note with it: time 3.0 day.
For the next series, the target named is Cytochrome P450 2C9 (Homo sapiens, UniProt P11712). Kind of series: Inhibition of CYP2C9 (unknown origin).
Cytochrome P450 2C9, sequence (P11712 whole entry): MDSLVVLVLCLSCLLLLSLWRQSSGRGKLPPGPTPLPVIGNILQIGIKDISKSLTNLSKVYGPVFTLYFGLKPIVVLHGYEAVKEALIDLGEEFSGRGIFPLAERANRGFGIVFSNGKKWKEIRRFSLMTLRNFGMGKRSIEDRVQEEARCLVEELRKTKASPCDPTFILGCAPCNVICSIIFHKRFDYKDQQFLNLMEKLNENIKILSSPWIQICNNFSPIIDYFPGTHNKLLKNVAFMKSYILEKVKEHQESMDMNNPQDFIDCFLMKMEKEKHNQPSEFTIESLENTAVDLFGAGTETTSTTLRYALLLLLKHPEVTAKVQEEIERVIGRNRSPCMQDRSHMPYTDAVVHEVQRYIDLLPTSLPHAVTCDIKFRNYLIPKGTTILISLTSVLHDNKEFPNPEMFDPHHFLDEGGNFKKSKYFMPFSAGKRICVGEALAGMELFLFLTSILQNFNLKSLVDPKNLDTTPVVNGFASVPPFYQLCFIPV

Voltage-dependent L-type calcium channel subunit alpha-1C, sequence (Q13936 whole entry): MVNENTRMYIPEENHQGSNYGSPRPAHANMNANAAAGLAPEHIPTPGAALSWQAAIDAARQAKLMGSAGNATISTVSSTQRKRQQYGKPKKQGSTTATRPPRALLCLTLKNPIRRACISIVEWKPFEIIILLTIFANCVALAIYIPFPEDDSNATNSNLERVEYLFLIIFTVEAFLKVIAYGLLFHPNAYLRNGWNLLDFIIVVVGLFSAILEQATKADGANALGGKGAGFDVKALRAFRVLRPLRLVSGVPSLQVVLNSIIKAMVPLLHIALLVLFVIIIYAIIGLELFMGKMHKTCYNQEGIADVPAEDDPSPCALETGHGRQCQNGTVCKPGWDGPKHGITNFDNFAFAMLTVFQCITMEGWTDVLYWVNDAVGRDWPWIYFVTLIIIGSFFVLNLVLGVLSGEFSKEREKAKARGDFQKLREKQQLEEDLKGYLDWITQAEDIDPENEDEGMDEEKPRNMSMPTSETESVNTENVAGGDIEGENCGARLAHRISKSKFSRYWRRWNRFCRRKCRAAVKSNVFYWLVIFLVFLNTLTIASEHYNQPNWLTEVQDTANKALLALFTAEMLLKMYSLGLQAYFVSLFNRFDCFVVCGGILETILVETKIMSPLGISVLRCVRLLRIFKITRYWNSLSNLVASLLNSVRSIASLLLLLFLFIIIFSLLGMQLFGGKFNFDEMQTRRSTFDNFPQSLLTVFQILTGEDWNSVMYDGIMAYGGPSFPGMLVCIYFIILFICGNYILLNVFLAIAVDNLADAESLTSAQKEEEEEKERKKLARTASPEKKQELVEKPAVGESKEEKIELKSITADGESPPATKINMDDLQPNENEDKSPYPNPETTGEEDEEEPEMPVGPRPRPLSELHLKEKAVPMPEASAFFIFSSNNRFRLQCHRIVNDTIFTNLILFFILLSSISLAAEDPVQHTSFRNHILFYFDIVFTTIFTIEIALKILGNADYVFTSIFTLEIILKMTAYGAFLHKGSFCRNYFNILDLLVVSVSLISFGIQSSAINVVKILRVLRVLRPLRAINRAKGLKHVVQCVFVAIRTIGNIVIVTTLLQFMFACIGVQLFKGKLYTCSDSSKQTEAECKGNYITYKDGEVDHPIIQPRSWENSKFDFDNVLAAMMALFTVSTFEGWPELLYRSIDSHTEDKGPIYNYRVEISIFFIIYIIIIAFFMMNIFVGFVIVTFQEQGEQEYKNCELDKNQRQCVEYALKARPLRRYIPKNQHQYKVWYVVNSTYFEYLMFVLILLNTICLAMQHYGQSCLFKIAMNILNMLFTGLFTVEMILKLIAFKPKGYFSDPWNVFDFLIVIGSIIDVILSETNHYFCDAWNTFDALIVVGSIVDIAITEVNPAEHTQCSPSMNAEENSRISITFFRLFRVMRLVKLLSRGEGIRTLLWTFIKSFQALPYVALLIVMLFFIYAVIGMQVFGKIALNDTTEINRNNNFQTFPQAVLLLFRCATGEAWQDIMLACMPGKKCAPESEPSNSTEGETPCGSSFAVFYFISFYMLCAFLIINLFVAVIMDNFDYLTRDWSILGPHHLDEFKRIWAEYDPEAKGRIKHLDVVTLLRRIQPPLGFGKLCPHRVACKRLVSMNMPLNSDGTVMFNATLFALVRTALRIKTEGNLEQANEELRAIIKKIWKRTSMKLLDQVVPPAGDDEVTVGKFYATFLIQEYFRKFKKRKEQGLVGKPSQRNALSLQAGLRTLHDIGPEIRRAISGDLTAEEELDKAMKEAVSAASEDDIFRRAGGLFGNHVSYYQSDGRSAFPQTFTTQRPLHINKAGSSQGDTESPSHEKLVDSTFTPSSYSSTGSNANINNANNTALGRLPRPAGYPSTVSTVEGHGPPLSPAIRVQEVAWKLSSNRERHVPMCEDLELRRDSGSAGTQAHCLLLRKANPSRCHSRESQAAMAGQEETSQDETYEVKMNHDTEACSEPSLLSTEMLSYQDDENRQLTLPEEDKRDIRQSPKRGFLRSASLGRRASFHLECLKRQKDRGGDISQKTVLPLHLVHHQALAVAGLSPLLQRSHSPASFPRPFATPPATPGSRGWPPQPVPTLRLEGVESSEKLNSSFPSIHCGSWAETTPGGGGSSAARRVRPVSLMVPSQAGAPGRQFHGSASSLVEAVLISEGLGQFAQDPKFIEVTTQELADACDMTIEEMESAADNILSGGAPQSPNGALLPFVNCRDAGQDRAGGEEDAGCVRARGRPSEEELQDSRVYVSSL
Sodium channel protein type 5 subunit alpha, sequence (Q14524 whole entry): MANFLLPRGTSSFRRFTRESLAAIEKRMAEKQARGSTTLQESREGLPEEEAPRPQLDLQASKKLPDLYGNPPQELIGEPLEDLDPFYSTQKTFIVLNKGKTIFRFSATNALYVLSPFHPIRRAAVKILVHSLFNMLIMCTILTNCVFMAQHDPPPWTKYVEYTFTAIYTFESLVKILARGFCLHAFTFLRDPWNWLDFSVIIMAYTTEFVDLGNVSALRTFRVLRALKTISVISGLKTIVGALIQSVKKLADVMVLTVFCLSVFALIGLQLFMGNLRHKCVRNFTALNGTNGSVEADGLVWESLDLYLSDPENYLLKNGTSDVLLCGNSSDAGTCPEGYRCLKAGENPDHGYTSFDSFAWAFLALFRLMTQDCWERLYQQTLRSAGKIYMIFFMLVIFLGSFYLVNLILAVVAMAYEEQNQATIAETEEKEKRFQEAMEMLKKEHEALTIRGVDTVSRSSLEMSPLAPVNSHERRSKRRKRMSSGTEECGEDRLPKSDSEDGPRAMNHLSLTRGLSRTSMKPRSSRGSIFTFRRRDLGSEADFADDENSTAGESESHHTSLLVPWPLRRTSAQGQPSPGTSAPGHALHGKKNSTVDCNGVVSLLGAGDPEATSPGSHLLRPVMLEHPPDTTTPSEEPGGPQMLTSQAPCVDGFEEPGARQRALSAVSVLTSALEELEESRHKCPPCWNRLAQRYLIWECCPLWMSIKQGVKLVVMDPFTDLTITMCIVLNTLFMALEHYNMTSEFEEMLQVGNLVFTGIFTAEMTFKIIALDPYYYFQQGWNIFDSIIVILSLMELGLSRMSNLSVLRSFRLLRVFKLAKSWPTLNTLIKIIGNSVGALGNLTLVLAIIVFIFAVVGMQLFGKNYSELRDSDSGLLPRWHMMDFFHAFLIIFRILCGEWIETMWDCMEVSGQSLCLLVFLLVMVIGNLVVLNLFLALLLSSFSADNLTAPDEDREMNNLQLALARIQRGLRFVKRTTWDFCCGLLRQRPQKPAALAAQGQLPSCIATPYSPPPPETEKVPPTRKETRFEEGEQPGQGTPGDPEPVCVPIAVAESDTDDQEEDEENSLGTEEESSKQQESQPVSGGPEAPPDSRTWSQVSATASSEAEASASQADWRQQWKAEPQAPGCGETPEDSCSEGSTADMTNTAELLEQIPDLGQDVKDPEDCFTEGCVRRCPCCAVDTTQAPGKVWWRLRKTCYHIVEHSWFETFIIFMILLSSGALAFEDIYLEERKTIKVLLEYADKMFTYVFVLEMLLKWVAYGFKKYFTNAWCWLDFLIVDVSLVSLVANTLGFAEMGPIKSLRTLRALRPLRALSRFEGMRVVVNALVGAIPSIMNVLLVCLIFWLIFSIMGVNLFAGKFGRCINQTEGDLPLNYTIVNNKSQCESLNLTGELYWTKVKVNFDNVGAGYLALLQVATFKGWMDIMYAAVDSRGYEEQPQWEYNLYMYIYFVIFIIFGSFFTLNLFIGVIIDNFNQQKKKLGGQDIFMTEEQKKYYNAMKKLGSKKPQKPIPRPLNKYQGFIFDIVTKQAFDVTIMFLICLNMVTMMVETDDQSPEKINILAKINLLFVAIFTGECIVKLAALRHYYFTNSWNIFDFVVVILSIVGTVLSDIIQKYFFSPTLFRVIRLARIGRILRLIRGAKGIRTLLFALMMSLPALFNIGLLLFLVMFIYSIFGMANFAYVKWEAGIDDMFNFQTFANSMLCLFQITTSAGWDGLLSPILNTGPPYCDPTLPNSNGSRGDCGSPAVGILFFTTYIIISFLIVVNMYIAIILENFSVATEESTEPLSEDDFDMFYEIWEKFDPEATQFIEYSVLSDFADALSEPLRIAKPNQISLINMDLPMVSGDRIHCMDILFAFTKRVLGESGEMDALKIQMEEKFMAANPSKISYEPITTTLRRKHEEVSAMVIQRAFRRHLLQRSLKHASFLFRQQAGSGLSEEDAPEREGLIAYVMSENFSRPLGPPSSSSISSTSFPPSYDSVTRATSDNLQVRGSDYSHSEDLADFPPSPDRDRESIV

`CC1=C(N2CCC3(CCN(C[C@H](O)c4ccc5c(c4C)COC5=O)CC3)C2=O)COC1=O`: the IC50 in series [1] is greater than 100 µM; in [2], greater than 30 µM; in [4], greater than 30 µM; in [12], greater than 100 µM; against Cytochrome P450 2D6, greater than 50 µM; at Cytochrome P450 2C8 it was greater than 50 µM. The same compound returned a half-inhibitory concentration (IC50) at Cytochrome P450 2C9 greater than 50 µM. For the same compound, the Vd in series [3] was 5.2 L/kg; in series [13], 7.9 L/kg. Besides, the half-life was 3.6 h in series [5] and 1.8 h in [17]. Further, in series [6], the dose excreted is 66%. Besides, the Activity result with Rattus norvegicus [7], in the series with Rattus norvegicus [11] and in the series on Rattus norvegicus [18] was “Dose-Dependent Effect” in each case. The same compound gave a Cmax in series [8] of 310 nM. The clearance in [9] was determined as 29.4 mL/min/kg; in series [10] it was 58.3 mL/min/kg. In addition, the Stability result in [14] and in series [16] was “Stable” in each case. Also, in series [15], the bioavailability turned out to be 100%.
